Values of other authors in patent publication EP2706070A1, “Combination treatments involving antibodies to human PCSK9” (SANOFI, priority 2012, dated 2014).

Experiments:
[1] = elimination (ezetimibe and its glucuronide: from plasma, after oral administration); cited from earlier work
LDL-C = conditions: ezetimibe 10 mg/day added to maximal dose of statins, genotype-confirmed hoFH; cited from earlier work

Compound | half-life [1] | total reduction of LDL-C levels (LDL-C)
O=C(O)[C@H]1O[C@@H](Oc2ccc([C@@H]3[C@@H](CC[C@H](O)c4ccc(F)cc4)C(=O)N3c3ccc(F)cc3)cc2)[C@H](O)[C@@H](O)[C@@H]1O [ezetimibe-glucuronide] | approximately 22 hours | –
O=C1[C@H](CC[C@H](O)c2ccc(F)cc2)[C@@H](c2ccc(O)cc2)N1c1ccc(F)cc1 [ezetimibe] | – | 27%
